# Laboratory results as given in ChEMBL document CHEMBL1201862, “PubChem BioAssay data set” (2004).
#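 The compound was tested at five concentrations on cells cultured in 96-well plates, with a 48-hour exposure period. GI50 = concentration required for 50% inhibition of growth.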 Active and inactive are the calls of the source. No stated cut-off is given here; in the data, active = GI50 up to about 1.1 µM and inactive = higher.
# What was measured:
# Experiment in all cases: NCI tumour cell line growth inhibition, 48 h
# OVCAR-4 = test system: OVCAR-4
# UACC-257 = test system: UACC-257
# OVCAR-3 = test system: OVCAR-3
# K562 = test system: K562
# Malme-3M = test system: Malme-3M
# MOLT-4 = test system: MOLT-4
# PC-3 = test system: PC-3
# HL-60 = test system: HL-60
# NCI-H460 = test system: NCI-H460
# HCC 2998 = test system: HCC 2998
# SR = test system: SR
# HCT-15 = test system: HCT-15
# SK-MEL-2 = test system: SK-MEL-2
# HT-29 = test system: HT-29
# SF-268 = test system: SF-268
# SK-MEL-5 = test system: SK-MEL-5
# A549 = test system: A549
# MDA-N = test system: MDA-N
# NCI/ADR-RES = test system: NCI/ADR-RES
Compound,GI50 (OVCAR-4),GI50 (UACC-257),GI50 (OVCAR-3),GI50 (K562),GI50 (Malme-3M),GI50 (MOLT-4),GI50 (PC-3),GI50 (HL-60),GI50 (NCI-H460),GI50 (HCC 2998),GI50 (SR),GI50 (HCT-15) [µM],GI50 (SK-MEL-2),GI50 (HT-29),GI50 (SF-268),GI50 (SK-MEL-5),GI50 (A549),GI50 (MDA-N),GI50 (NCI/ADR-RES)
CCC1(CC)N=C(C(F)(F)F)c2cc(C(=O)C(F)(F)F)c3ccccc3c2N1,4.57 µM (inactive),7.8 µM (inactive),2.73 µM (inactive),3.72 µM (inactive),11.4 µM (inactive),2.82 µM (inactive),3.3 µM (inactive),2.95 µM (inactive),4.16 µM (inactive),4.39 µM (inactive),2.98 µM (inactive),4.22,2.81 µM (inactive),3.7 µM (inactive),8.43 µM (inactive),1.77 µM (inactive),9.71 µM (inactive),3.15 µM (inactive),4.14 µM (inactive)
O=c1oc2c([N+](=O)[O-])cc([N+](=O)[O-])cc2c2ccccc12,> 100 µM (inactive),> 100 µM (inactive),> 100 µM (inactive),> 100 µM (inactive),> 100 µM (inactive),> 100 µM (inactive),> 100 µM (inactive),> 100 µM (inactive),> 100 µM (inactive),> 100 µM (inactive),> 100 µM (inactive),> 100,> 100 µM (inactive),> 100 µM (inactive),> 100 µM (inactive),> 100 µM (inactive),> 100 µM (inactive),> 100 µM (inactive),> 100 µM (inactive)
COC(=O)C(CCc1ccccc1I)C1=CCC2(CC1)OCCO2 (stereo not drawn),40.1 µM (inactive),29.4 µM (inactive),29.4 µM (inactive),66.4 µM (inactive),33.6 µM (inactive),49.8 µM (inactive),27 µM (inactive),0.0435 µM (active),65.8 µM (inactive),33.6 µM (inactive),36.2 µM (inactive),34.1,41.2 µM (inactive),35.1 µM (inactive),57.9 µM (inactive),15 µM (inactive),31 µM (inactive),24.2 µM (inactive),24.6 µM (inactive)
CC(=O)NC1C(O)C(O)C(CO)OC1n1ncc(=O)[nH]c1=O (stereo not drawn),> 100 µM (inactive),> 100 µM (inactive),> 100 µM (inactive),> 100 µM (inactive),> 100 µM (inactive),> 100 µM (inactive),> 100 µM (inactive),> 100 µM (inactive),> 100 µM (inactive),> 100 µM (inactive),> 100 µM (inactive),> 100,> 100 µM (inactive),> 100 µM (inactive),> 100 µM (inactive),> 100 µM (inactive),> 100 µM (inactive),> 100 µM (inactive),> 100 µM (inactive)
O=C1C(SCCO)=C(SCCO)C(=O)c2ccccc21,0.252 µM (active),1.29 µM (inactive),0.986 µM (active),1.67 µM (inactive),1.1 µM (active),0.0794 µM (active),2.1 µM (inactive),1.17 µM (inactive),1.77 µM (inactive),1.74 µM (inactive),1.51 µM (inactive),1.39,2 µM (inactive),2.16 µM (inactive),1.56 µM (inactive),0.238 µM (active),1.29 µM (inactive),0.167 µM (active),0.94 µM (active)
COc1cccc(C2c3cc4c(cc3OC(C)(N3CCCC3)C2C)OCO4)c1 (stereo not drawn),14.3 µM (inactive),18.2 µM (inactive),4.89 µM (inactive),58.3 µM (inactive),11.6 µM (inactive),51.3 µM (inactive),16.3 µM (inactive),23.1 µM (inactive),9.62 µM (inactive),13.1 µM (inactive),9.48 µM (inactive),5.35,2.45 µM (inactive),3.77 µM (inactive),27.4 µM (inactive),3.92 µM (inactive),7.55 µM (inactive),2.13 µM (inactive),6.9 µM (inactive)
Cc1ccc([N+](=O)[O-])cc1S(=O)(=O)Nc1ccc(C2=NN(S(=O)(=O)c3cc([N+](=O)[O-])ccc3C)C(c3ccccc3)C2)cc1 (stereo not drawn),33.9 µM (inactive),24.8 µM (inactive),26 µM (inactive),30.1 µM (inactive),17.7 µM (inactive),30 µM (inactive),26.9 µM (inactive),35.6 µM (inactive),21.6 µM (inactive),22.2 µM (inactive),32 µM (inactive),30.9,22.6 µM (inactive),33.5 µM (inactive),17.6 µM (inactive),26.3 µM (inactive),29.4 µM (inactive),30.1 µM (inactive),25.5 µM (inactive)
